Values of other authors as cited in US20050255458A1, “Drug discovery assays based on the biology of chronic disease” (priority 2002, published 2005).
Where two headings read alike, the source gives them in different places.

Experiments:
HSV-1 = details: cited from earlier work
TF promoter = details: cited from earlier work
tissue factor (TF) gene = details: cited from earlier work
[1] = system: hair follicles (onset of anagen); details: topical 10 nmol twice weekly, female CD-1 mice; cited from earlier work
Elk-1 = details: Peterziel 1999; cited from earlier work
ERK [2] = details: cited from earlier work
AR gene = details: cited from earlier work
sebocytes = details: 10^−6 M, cited from earlier work
[3] = system: ML-1 human myeloblastic leukemic cells; details: cited from earlier work
[4] = system: AU565 breast carcinoma cells; details: cited from earlier work
endogenous AR gene = details: 10^−8 M, cited from earlier work
NF-κB [5] = details: cited from earlier work
DC = details: inhaled; cited from earlier work
GABP = details: Ojuka 2003; cited from earlier work
ACE = target: T1, ACE (Mesocricetus auratus, UniProt Q50JE5); details: cited from earlier work
T1 construct: from tissue; host or cells: whole animal, in vivo (hamster)
T1 sequence (Q50JE5 36-1314): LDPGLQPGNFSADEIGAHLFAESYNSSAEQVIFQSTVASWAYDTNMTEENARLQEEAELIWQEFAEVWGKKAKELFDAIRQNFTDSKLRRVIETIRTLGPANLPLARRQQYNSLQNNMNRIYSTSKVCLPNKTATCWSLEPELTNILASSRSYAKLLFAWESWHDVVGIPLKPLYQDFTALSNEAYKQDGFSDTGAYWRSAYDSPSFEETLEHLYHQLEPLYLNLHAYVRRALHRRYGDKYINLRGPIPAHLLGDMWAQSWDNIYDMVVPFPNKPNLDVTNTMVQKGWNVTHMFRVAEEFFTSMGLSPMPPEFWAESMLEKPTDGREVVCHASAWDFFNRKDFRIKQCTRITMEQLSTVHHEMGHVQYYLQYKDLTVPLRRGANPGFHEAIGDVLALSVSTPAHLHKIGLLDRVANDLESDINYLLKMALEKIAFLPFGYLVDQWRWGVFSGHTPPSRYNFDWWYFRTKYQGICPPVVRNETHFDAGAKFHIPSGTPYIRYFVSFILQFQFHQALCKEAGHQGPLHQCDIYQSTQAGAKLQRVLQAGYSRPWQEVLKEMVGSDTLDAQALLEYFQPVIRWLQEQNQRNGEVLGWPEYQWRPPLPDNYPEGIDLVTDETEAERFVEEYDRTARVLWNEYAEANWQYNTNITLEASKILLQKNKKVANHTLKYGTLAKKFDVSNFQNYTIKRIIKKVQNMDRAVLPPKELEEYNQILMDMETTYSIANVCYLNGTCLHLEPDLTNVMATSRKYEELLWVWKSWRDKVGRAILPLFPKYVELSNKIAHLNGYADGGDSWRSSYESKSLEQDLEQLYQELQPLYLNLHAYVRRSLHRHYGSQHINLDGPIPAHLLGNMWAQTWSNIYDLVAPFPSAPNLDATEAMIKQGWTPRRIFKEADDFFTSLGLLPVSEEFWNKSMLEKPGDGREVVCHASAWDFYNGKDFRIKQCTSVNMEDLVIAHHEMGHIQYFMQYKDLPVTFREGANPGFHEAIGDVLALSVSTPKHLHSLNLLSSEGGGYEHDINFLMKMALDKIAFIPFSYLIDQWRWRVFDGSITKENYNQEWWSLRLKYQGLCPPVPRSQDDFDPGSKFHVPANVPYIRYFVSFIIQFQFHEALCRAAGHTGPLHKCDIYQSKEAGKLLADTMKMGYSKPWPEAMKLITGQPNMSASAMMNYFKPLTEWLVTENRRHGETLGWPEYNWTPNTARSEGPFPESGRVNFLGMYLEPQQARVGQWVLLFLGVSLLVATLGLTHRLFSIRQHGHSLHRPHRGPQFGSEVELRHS

TF [6] = details: cited from earlier work
TF [7] = details: cited from earlier work; remark: listed apart in the source
[8] = system: hamsters on a high-cholesterol diet; details: 8 weeks, cited from earlier work
ERK [9] = details: cited from earlier work; remark: listed apart in the source
[10] = system: abdominal subcutaneous adipocytes; details: obese vs non-obese (Hellstrom 2000); cited from earlier work
[11] = cited from earlier work
NF-κB [12] = details: various cells and tissues; cited from earlier work
[13] = drinking water, 4 months, vs untreated obese (fa/fa); cited from earlier work
MDAY-D2 tumor = details: 500 μg daily s.c., cited from earlier work

Nc1nc2c(ncn2COCCO)c(=O)[nH]1 [ACV, aciclovir]
copy number of latent HSV-1 genomes (HSV-1; 7 days from first day post infection, day 44, relative to IgG): decreased the copy number of latent HSV-1 genomes

CC1=C(/C=C/C(C)=C/C=C/C(C)=C/C(=O)O)C(C)(C)CCC1 [ATRA, all-trans retinoic acid]
LPS induced increase in LUC transcription (TF promoter; 30-minute ATRA before 5-hour LPS): no decrease | LUC activity (TF promoter; ATRA 10^−5 mol/L, 30 minutes, vs untreated): no decrease in LUC activity | TF mRNA (tissue factor (TF) gene; 10^−5 mol/L, 30 minutes): decrease in TF mRNA | binding of c-Fos/c-Jun, c-Rel/p65 and Sp1 to their sites (tissue factor (TF) gene; 10^−5 mol/L, 30 minutes): no change in binding | rate of TF transcription (run-on) (tissue factor (TF) gene; LPS 10 μg/ml 1 hour, ATRA 10^−5 mol/L 30 minutes before LPS): decreased TF transcription

C[C@]12CCC(=O)C[C@@H]1CC[C@@H]1[C@@H]2CC[C@]2(C)[C@@H](O)CC[C@@H]12 [DHT, Dihydrotestosterone]
delay in hair regrowth [1]: 3-4 week | Elk-1 transcription activity (Elk-1): increase in Elk-1 transcription activity | ERK phosphorylation (ERK [2]; LNCaP or PC-3 cells (Guo 2000)): no increase in ERK phosphorylation | Effect on [ERK^phos] (ERK [2]; LNCaP): ↑[ERK^phos] | Effect on [ERK^phos] (ERK [2]; primary genital skin fibroblasts): ↑[ERK^phos] | Effect on [ERK^phos] (ERK [2]; primary prostatic stormal cells): ↑[ERK^phos] | AR mRNA half life (AR gene; LNCaP): Increased mRNA half life | AR transcription in run-on assays (AR gene; LNCaP): Decreased transcription | Effect on [mRNAAR] (AR gene; LNCaP): ↓[mRNAAR] | AR mRNA half life (AR gene; MDA453): Decreased mRNA half life | AR transcription in run-on assays (AR gene; MDA453): No change in run-on | Effect on [mRNAAR] (AR gene; MDA453): ↓[mRNAAR] | decrease in DNA synthesis (^3H-thymidine uptake) (sebocytes; vs untreated): 40% | sebocyte differentiation (lipid accumulation) (sebocytes; statistically insignificant): small increase

CC(=O)OCC(CCn1cnc2cnc(N)nc21)COC(C)=O [FCV, famciclovir]
establishment of viral latency (HSV-1; 9-10 days treatment early in infection): effective in limiting the establishment of viral latency

COc1cccc(-c2cc(=O)c3ccccc3o2)c1N [PD98059]
ML-1 proliferation with TPA ([3]; 10 μM PD98059 with 0.3 ng/ml TPA): continued to proliferate | decrease in TPA-stimulated ERK2 activity ([3]; 1 h): 2 fold | decrease in TPA-stimulated ERK2 activity ([3]; 3 h): 10 fold | effect on HRGβ1-induced cell growth arrest ([4]; 0-10 μM PD98059): dose-dependently reversed | cell differentiation ([4]; HRGβ1 alone, PD98059 as pretreatment): dose-dependently inhibited

C[C@]1(O)CC[C@H]2[C@@H]3CCC4=CC(=O)CCC4=C3C=C[C@@]21C [R1881, methyltrienolone]
Effect on [ERK^phos] (ERK [2]; PMC42 human breast cancer cells): ↑[ERK^phos] | Effect on [mRNAAR] (AR gene; LNCaP): ↓[mRNAAR] | transcription of endogenous AR gene (endogenous AR gene; 8 hours): 85 % of control | transcription of endogenous AR gene (endogenous AR gene; 24 hours): 73 % of control

CCC(=O)OCC(=O)[C@@]1(OC(=O)CC)[C@@H](C)C[C@H]2[C@@H]3CCC4=CC(=O)C=C[C@]4(C)[C@@]3(Cl)[C@@H](O)C[C@@]21C [beclomethasone dipropionate]
NF-κB activation (NF-κB [5]): decreases NF-κB activation | number of DC in asthma (DC): decreased the excessive number of DCs in asthma

Cn1c(=O)c2c(ncn2C)n(C)c1=O [caffeine]
GABP binding to the N-box (GABP): increase of GABP binding

C[C@H](CS)C(=O)N1CCC[C@H]1C(=O)O [captopril]
decrease in HDL (ACE; 100 mg/kg/day, 6 weeks, vs week 3 and 4): 24% | number of subendothelial macrophage derived foam cells (ACE; 100 mg/kg/day, after 6 weeks of treatment): 52±9 cell/mm^2 | area of extracellular lipid particles (ACE; after 6 weeks of treatment): 157±36 μm2×1,000 | area of fatty streak (ACE; after 6 weeks of treatment): 55±12 μm2×1,000 | average size of a foam cell (ACE; after 6 weeks of treatment): 89±5 μm^2 | nuclear translocation of c-Rel/p65 induced by endotoxin (TF [6]; 20 μg/mL): almost completely inhibited | TF activity (TF [6]; dose-dependent): decreased TF activity | level of TF antigen and mRNA in the cultured cells (TF [7]): decreased the level of TF antigen and mRNA | cell size of macrophage derived foam cells [8]: did not change the cell size | decrease of fatty streak area [8]: 35% | heart rate [8]: 348±6 beats/min | mean arterial pressure [8]: 110±5 mm Hg | subendothelial number of macrophage derived foam cells in the aortic arch [8]: 108±10 cells/mm^2 | plasma total cholesterol ([8]; pravastatin 34, captopril 100 mg/kg/day): did not change plasma lipids

O=C1CN(/N=C/c2ccc(-c3ccc([N+](=O)[O-])cc3)o2)C(O)=N1 [dantrolene]
GABP binding to the N-box (GABP): prevented the effect

CCCC(=O)Nc1ncnc2c1ncn2[C@@H]1O[C@@H]2COP(=O)(O)O[C@H]2[C@H]1OC(=O)CCC [dibutyryl cAMP, dibutyryl cyclic AMP]
ERK activation (ERK [9]; adipocytes): activated ERK | decrease in maximum induced glycerol release [10]: 50%

Nc1nc(O)c2ncn(COC(CO)CO)c2n1 [ganciclovir, Ganciclovir]
actuarial incidence of TxCAD ([11]; 28 days prophylaxis, follow-up 4.7±1.3 years): 43±8% | patients who developed TxCAD ([11]; CMV seronegative recipients, 14 patients): 28%

CC(C)NCC(O)c1ccc(O)c(O)c1 (stereo not drawn) [isoprenaline]
ERK activation (ERK [9]; CHO/K1 cells expressing the human β3AR): activated ERK | ERK activation (ERK [9]; adipocytes): activated ERK | decrease in maximum induced glycerol release [10]: 50%

CC[C@H](C)C(=O)O[C@H]1CCC=C2C=C[C@H](C)[C@H](CC[C@@H]3C[C@@H](O)CC(=O)O3)[C@H]21 [mevastatin]
NF-κB activation (NF-κB [12]): inhibited NF-κB activation

O=C(O)C[C@H](O)C[C@H](O)/C=C/c1c(C2CC2)nc2ccccc2c1-c1ccc(F)cc1 [pitavastatin]
NF-κB activation (NF-κB [12]): inhibited NF-κB activation

[Na+].[Na+].[Na+].[O]=[V]([O-])([O-])[O-] [sodium orthovanadate]
decrease in body weight [13]: 43% | tumor weights (MDAY-D2 tumor; day 14, 11 mice with tumors): 0.08 to 0.47 g | decrease in tumor growth (MDAY-D2 tumor): more than 85%
